Results from patent US7666909B2, “Enhancement of alcohol metabolism” (priority 2005, dated 2010).

Key:
[1] = Effect of D-glyceric acid on blood alcohol level in rats after intraperitoneal alcohol; assay type: in vivo, rat; conditions: on average, both fasted and nonfasted rats; versus same alcohol dose without D-GLAC
Experimental: 40 animals were fasted for 12 hours before the experiment, and 40 were fed normally. In the experiment, each rat received intraperitoneally an intoxicating single dose of alcohol (1.2 g/kg, 10% w/v) in physiological saline. […] The blood samples were then analysed by headspace gas chromatography.

ALDH = test: Formation of acetic acid from AcA by ALDH/NADH in the presence of D-GLAC (Reaction 6), gas chromatography; assay type: biochemical; conditions: 3 mmol D-GLAC, 0.3 mmol AcA, 5 units ALDH, NADH, phosphate buffer pH 6.865, stirred 6 hours; GC analysis
[2] = large doses (1-5 g/kg) taken together with the alcohol (Crownover et al. 1986); cited from earlier work
mouse = conditions: cited from earlier work
[3] = oral administration during alcohol drinking (Tabakoff et al. 1989); cited from earlier work

In the case of `O=C(O)C(O)CO` [D-GLAC, D-glyceric acid], the “Lower blood alcohol concentration than the corresponding control group” value [1] is reported as 20% and the “Formation of acetic acid from AcA” value (ALDH) is reported as “acetic acid had been formed”.

In the case of `O=C(CO)[C@@H](O)[C@H](O)[C@H](O)CO` [fructose], the “Enhancement of alcohol elimination rate” value [2] is given as “up to 20%”.

In the case of `CCO` [alcohol, ethyl alcohol], the LD70 (mouse; in vivo) is given as 6500 mg/kg.

In the case of `CC=O` [AcA, acetaldehyde], the LD100 (mouse; acute toxicity) is given as 750 mg/kg.

For `CSCC[C@H](N)C(=O)O` [methionine], the “Reduction in blood AcA concentrations” value [3] is listed as 20%.
